# Experimental data published in patent US6849637B2, “Triazolo compounds as MMP inhibitors” (Warner-Lambert Company, priority 2001, dated 2005).
# Tested on: MMP-1, MMP-2, MMP-3, MMP-9 and MMP-13
# Conditions: prior art compounds, collagenase, gelatinase and stromelysin type MMPs; cited from earlier work
row,Compound,"inhibition of MMP-1, MMP-2, MMP-3, MMP-9 and MMP-13 (non-selective)"
1,CC1(C)SCCN(S(=O)(=O)c2ccc(Oc3ccncc3)cc2)[C@H]1C(=O)NO [AG-3340],simultaneously inhibit
2,COc1ccc(S(=O)(=O)N(Cc2cccnc2)[C@@H](C(=O)NO)C(C)C)cc1 [CGS-27.023A],simultaneously inhibit

# Tested on: not given
# Conditions: not given
row,Compound,melting point [°C]
1,"COC(=O)c1ccc(Cn2c(=O)c3cc(C(=O)NCc4ccncc4)ccc3n3cnnc23)cc1 [Example 12, Methyl 4-{7-[(pyridin-4-ylmethyl)-carbamoyl]-5-oxo-5H-[1,2,4]triazolo[4,3-a]quinazol-4-ylmethyl}benzoate]",235
2,"COC(=O)Cc1ccc(Cn2c(=O)c3cc(C(=O)NCc4ccc(OC)cc4)ccc3n3cnnc23)cc1 [Example 17, Methyl (4-{7-[(4-methoxy)-benzylcarbamoyl]-5-oxo-5H-[1,2,4]triazolo[4,3-a]quinazolin-4-ylmethyl}-phenyl)-acetate]",204
3,"COc1ccc(CNC(=O)c2ccc3c(c2)c(=O)n(CCOc2ccc(Cl)cc2)c2nncn32)cc1 [Example 20, 4-[2-(4-Chloro-phenoxy)-ethyl]-5-oxo-4,5-dihydro-[1,2,4]triazolo[4,3-a]quinazoline-7-carboxylic acid 4-methoxy-benzylamide]",186
4,"O=C(O)c1ccc(Cn2c(=O)c3cc(C(=O)NCc4ccc5c(c4)OCO5)ccc3n3cnnc23)cc1 [Example 22, 4-{7-[(1,3-Benzodioxol-5-ylmethyl)-carbamoyl]-5-oxo-5H-[1,2,4]triazolo[4,3]quinazol-4-ylmethyl}benzoic acid]",235
5,"O=C(O)c1ccc(Cn2c(=O)c3cc(C(=O)NCc4ccncc4)ccc3n3cnnc23)cc1 [Example 23, 4-{7-[(Pyridin-4-ylmethyl)-carbamoyl]-5-oxo-5H-[1,2,4]triazolo[4,3-a]quinazol-4-ylmethyl}benzoic acid]",255
6,"COc1ccc(CNC(=O)c2ccc3c(c2)c(=O)n(Cc2ccc(CC(=O)O)cc2)c2nncn32)cc1 [Example 25, (4-{7-[(4-Methoxy)-benzylcarbamoyl]-5-oxo-5H-[1,2,4]triazolo[4,3-a]quinazolin-4-ylmethyl}-phenyl)-acetic acid]",268
7,"O=C(O)Cc1ccc(Cn2c(=O)c3cc(C(=O)NCc4ccc5c(c4)OCO5)ccc3n3cnnc23)cc1 [Example 26, (4-{7-[(1,3-Benzodioxol-5-ylmethyl)-carbamoyl]-5-oxo-5H-[1,2,4]triazolo[4,3-a]quinazolin-4-ylmethyl}-phenyl)-acetic acid]",232

# Second part, the compound after the results:
row,melting point [°C],Compound
1,248,"COC(=O)c1ccc(Cn2c(=O)c3cc(C(=O)NCc4ccc5c(c4)OCO5)ccc3n3cnnc23)cc1 [Example 10, Methyl 4-{7-[(1,3-benzodioxol-5-ylmethyl)-carbamoyl]-5-oxo-5H-[1,2,4]triazolo[4,3-a]quinazol-4-ylmethyl}benzoate]"
2,210,"COC(=O)c1ccc(Cn2c(=O)c3cc(C(=O)NCc4ccc(OC)cc4)ccc3n3cnnc23)cc1 [Example 11, Methyl 4-{7-[(4-methoxybenzyl)-carbamoyl]-5-oxo-5H-[1,2,4]triazolo[4,3-a]quinazol-4-ylmethyl}benzoate]"
3,175,"CN(C)CCOC(=O)c1ccc(Cn2c(=O)c3cc(C(=O)NCc4ccc(F)cc4)ccc3n3cnnc23)cc1 [Example 13, (2-Dimethylamino-ethyl) 4-[7-(4-fluoro-benzylcarbamoyl)-5-oxo-5H-[1,2,4]triazolo[4,3-a]quinazol-4-ylmethyl]benzoate]"
4,300,"N#Cc1ccc(Cn2c(=O)c3cc(C(=O)NCc4ccncc4)ccc3n3cnnc23)cc1 [Example 15, N-(pyridin-4-ylmethyl)-4-(4-cyanobenzyl)-5-oxo-4H-[1,2,4]triazolo[4,3-a]quinazol-7-ylcarboxamide]"
5,250,"O=C(NCc1ccncc1)c1ccc2c(c1)c(=O)n(C/C=C/c1ccncc1)c1nncn21 [Example 19, N-(pyridin-4-ylmethyl) 4-[3-(pyridin-4-yl)-2-propen-1-yl]-5-oxo-4H-[1,2,4]triazolo[4,3-a]quinazol-7-ylcarboxamide]"
6,303,"O=C(O)c1ccc(Cn2c(=O)c3cc(C(=O)NCc4ccc(F)cc4)ccc3n3cnnc23)cc1 [Example 24, 4-{7-[(4-Fluoro)-benzylcarbamoyl]-5-oxo-5H-[1,2,4]triazolo[4,3-a]quinazol-4-ylmethyl}benzoic acid]"
